{"source": "patent US8192949B2", "about": "“Microaggregates including endothelial cells” (priority 2005, dated 2012)", "key": {"[1]": {"system": "capillary-associated cells (mostly endothelial cells) in neuroendocrine (pulmonary carcinoid) tumor microclusters", "assay": "In situ microcapillary viability assay (ISMCVA), fast green/H&E dye exclusion on tumor microclusters", "format": "cell-based, human", "conditions": "microclusters cultured for 96 hours in presence of bevacizumab; FIGS. 3B and 4B", "experimental": "(§1) Solid tumors are minced to pieces smaller than 1 mm (small enough to be aspirated into a standard disposable 10 ml pipette) with high quality curved surgical scissors. Medium in which said tumors may have been transported is reserved, along with the supernatant from the tissue mince. Scissor-minced tumor pieces are digested with collagenase/DNase in RPMI-1640 containing antibiotics and 10% fetal calf serum. Specimens are digested in 50 ml disposable polypropylene centrifuge tubes, assisted by gentle mixing with plastic-coated, magnetic stirring bars over a stirring plate. Specimens are thusly mixed until complete gross digestion has taken place—typically about 2-3 hours for a 1-3 gram specimen. […]\n(§2) Viable microaggregates are enriched from medium containing a mixture of microclusters that exist in the minced, digested tissue along with single cells, normal cells, red blood cells, dead cells, and debris by means of “quickspins.” Quickspins consist of repeated very brief centrifugations at 50-500×g, in which the centrifuge tube is first mixed by moderate hand-shaking, placed in a standard, room temperature, preparatory centrifuge, and then accelerated to the desired speed (determined for each centrifuge by empiric trials) and then immediately turned off once the centrifuge has reached the desired speed and then allowed to coast to a stop. […]"}, "[2]": {"system": "tumor cells in neuroendocrine (pulmonary carcinoid) tumor microclusters", "assay": "In situ microcapillary viability assay (ISMCVA), fast green/H&E dye exclusion on tumor microclusters", "format": "cell-based, human", "conditions": "microclusters cultured for 96 hours in presence of bevacizumab; FIGS. 3B and 4B", "experimental": "as §1, §2"}}}
{"substance": "bevacizumab", "values": [{"measurement": "viability of capillary-associated cells (fast green staining)", "setting": "[1]", "result": "most capillary-associated cells are dead"}, {"measurement": "viability of tumor cells (fast green / H/E staining)", "setting": "[2]", "result": "tumor cells remain viable"}]}
